Laboratory results: patent US20250066370A1, “BICYCLIC TRIAZINE DERIVATIVES FOR THE TREATMENT OF CANCER” (DEUTSCHES KREBSFORSCHUNGSZENTRUM, priority 2022, published 2025)

Tests used:
HCC1419 = experiment: Proliferation assay: cell line panel, HCC1419; format: cell-based; conditions: Homo sapiens, 96 h, breast cancer, HER2 positive, 4 days, read-out: Result Category, IC50 (mean)
Description: (§1) Human tumour cells were originally obtained from the American Type Culture Collection (ATCC), from Cell Line Services GmbH (CLS), from the Deutsche Sammlung von Mikroorganismen und Zellkulturen (DSMZ, German Collection of Microorganisms and Cell Cultures), from the Japanese Cancer Research Resources Bank (JCRB), from Public Health England, from the European Collection of Authenticated Cell Cultures (ECACC), from Asterand Biosciences, or from the National Cancer Institute (NCI). Cultivated tumour cells were plated at the density as indicated in Table 6 in 96-well multitier plates in 200 microL of their respective growth medium supplemented 10% fetal calf serum. […] Cell proliferation was determined by staining the cells with crystal violet: the cells were fixed by adding 20 microL/measuring point of an 11% glutaric aldehyde solution for 15 minutes at room temperature. […] The extinction was determined by photometry at a wavelength of 595 nm. The change of cell number, in percent, was calculated by normalization of the measured values to the extinction values of the zero-point plate (=0%) and the extinction of the untreated (0 μM) cells (=100%). […]

BT474 = experiment: Proliferation assay: cell line panel, BT474; format: cell-based; conditions: Homo sapiens, BT-474, 96 h, breast cancer, HER2 positive, 4 days, read-out: Result Category, IC50 (mean)
Description: as §1

HT-144 = experiment: Proliferation assay: cell line panel, HT-144; format: cell-based; conditions: Homo sapiens, 96 h, melanoma, 4 days, read-out: Result Category, IC50 (mean)
Description: as §1

CAL-120-CDK12d-res = experiment: Proliferation assay CDK12 degrader resistant CAL-120; format: cell-based, human; conditions: for IC50: Homo sapiens, 96 h, CDK12 degrader resistant CAL-120 cells, 4 days, median, read-out: Prolif-CAL-120-CDK12d-res, IC50 - [mol/l] (median); for Ratio (Prolif-CAL-120-CDK12d-res IC50 / Prolif-CAL-120 IC50): resistant versus parental CAL-120 cells
Description: (§2) CDK12-degrader resistant cells were generated by propagation of CAL-120 human breast adenocarcinoma cells (DSMZ ACC-459) and MDA-MB-231 human breast cancer cells (ATCC HTB-26) in presence of increasing concentrations of the CDK12 degrader compound example 4 from WO 2021/116178. Initial concentrations of example 4 were 2.0E-08 M for CAL-120 cells and 4.6E-08 M for MDA-MB-231 cells, corresponding to ca. 2-fold the IC50 of inhibition of the cells in an proliferation assay. After the treated cells recovered and proliferated again the concentration of compound example 4 was increased to 3-fold IC50.
(§3) To determine the inhibitory effect of test compounds on proliferation of CAL-120-CDK12d-res, MDA-MB-231-CDK12d-res the cells were plated at a density of 4,000 cells/well in a 96-well multitier plate in 200 microL of their respective growth medium supplemented 10% fetal calf serum. After 24 hours, the cells of one plate (zero-point plate) were stained with crystal violet (see below), while the medium of the other plates was supplemented with the test substances in various concentrations (0 micromol/L, as well as in the range of 0.01-10 micromol/L; the final concentration of the solvent dimethyl sulfoxide was adjusted to 0.1%) using a Tecan HP D300 Digital Dispenser. The cells were incubated for 4 days in the presence of test substances. Cell proliferation was determined by staining the cells with crystal violet: the cells were fixed by adding 20 microL/measuring point of an 11% glutaric aldehyde solution for 15 minutes at room temperature. After three washing cycles of the fixed cells with water, the plates were dried at room temperature. The cells were stained by adding 100 microL/measuring point of a 0.1% crystal violet solution (pH 3.0). After three washing cycles of the stained cells with water, the plates were dried at room temperature. The dye was dissolved by adding 100 microL/measuring point of a 10% acetic acid solution. The extinction was determined by photometry at a wavelength of 595 nm. The change of cell number, in percent, was calculated by normalization of the measured values to the extinction values of the zero-point plate (=0%) and the extinction of the untreated (0 μM) cells (=100%). The IC50 values (inhibitory concentration at 50% of maximal effect) were determined by means of a 4 parameter fit.

MDA-MB-468 = experiment: Proliferation assay: cell line panel, MDA-MB-468; format: cell-based; conditions: Homo sapiens, 96 h, breast cancer, triple-negative, 4 days, read-out: Result Category, IC50 (mean)
Description: as §1

COV318 = experiment: Proliferation assay: cell line panel, COV318; format: cell-based; conditions: Homo sapiens, 96 h, ovarian cancer, 4 days, read-out: Result Category, IC50 (mean)
Description: as §1

AU565 = experiment: Proliferation assay: cell line panel, AU565; format: cell-based; conditions: Homo sapiens, 96 h, breast cancer, HER2 positive, 4 days, read-out: Result Category, IC50 (mean)
Description: as §1

EFM192A = experiment: Proliferation assay: cell line panel, EFM192A; format: cell-based; conditions: Homo sapiens, EFM-192A, 96 h, breast cancer, HER2 positive, 4 days, read-out: Result Category, IC50 (mean)
Description: as §1

NCI-H1299 = experiment: Proliferation assay: cell line panel, NCI-H1299; format: cell-based; conditions: Homo sapiens, 96 h, lung cancer, non-small cell, 4 days, read-out: Result Category, IC50 (mean)
Description: as §1

JHH-7 = experiment: Proliferation assay: cell line panel, JHH-7; format: cell-based; conditions: Homo sapiens, JHH7, 96 h, liver cancer, 4 days, read-out: Result Category, IC50 (mean)
Description: as §1

MDA-MB-231-CDK12d-res = experiment: Proliferation assay CDK12 degrader resistant MDA-MB-231; format: cell-based, human; conditions: for IC50: Homo sapiens, 96 h, CDK12 degrader resistant MDA-MB-231 cells, 4 days, median, read-out: Prolif-MDA MB-231-CDK12d-res, IC50 - [mol/] (median); for Ratio (Prolif-MDA MB-231-CDK12d-res IC50 / Prolif-MDA MB-231 IC50): resistant versus parental MDA-MB-231 cells
Description: as §2, §3

HCC1954 = experiment: Proliferation assay: cell line panel, HCC1954; format: cell-based; conditions: Homo sapiens, 96 h, breast cancer, HER2 positive, 4 days, read-out: Result Category, IC50 (mean)
Description: as §1

CAL-120 = experiment: Proliferation assay: cell line panel, CAL-120; format: cell-based; conditions: Homo sapiens, 96 h, breast cancer, triple-negative, 4 days, read-out: Result Category, IC50 (mean)
Description: as §1

MDA-MB-231 = experiment: Proliferation assay: cell line panel, MDA-MB-231; format: cell-based; conditions: Homo sapiens, 96 h, breast cancer, triple-negative, 4 days, read-out: Result Category, IC50 (mean)
Description: as §1

Row | Structure (SMILES) | IC50 (HCC1419) [nM] | IC50 (BT474) [nM] | IC50 (HT-144) [nM] | IC50 (CAL-120-CDK12d-res) [nM] | Ratio (Prolif-CAL-120-CDK12d-res IC50 / Prolif-CAL-120 IC50) (CAL-120-CDK12d-res) | IC50 (MDA-MB-468) [nM] | IC50 (COV318) [nM] | IC50 (AU565) [nM] | IC50 (EFM192A) [nM] | IC50 (NCI-H1299) [nM] | IC50 (JHH-7) [nM] | IC50 (MDA-MB-231-CDK12d-res) [nM] | Ratio (Prolif-MDA MB-231-CDK12d-res IC50 / Prolif-MDA MB-231 IC50) (MDA-MB-231-CDK12d-res) | IC50 (HCC1954) [nM] | IC50 (CAL-120) [nM] | IC50 (MDA-MB-231) [nM]
1 | FC(F)(F)c1ccc(-c2cnc(CNc3nc(N4CCOCC4)nn4c(C(F)(F)F)cnc34)[nH]2)cc1 [Example 7, 2-(morpholin-4-yl)-7-(trifluoromethyl)-N-({5-[4-(trifluoromethyl)phenyl]-1H-imidazol-2-yl}methyl)imidazo[2,1-f][1,2,4]triazin-4-amine] | 30 to 100 | 30 to 100 | 30 to 100 | 112 | 1.1 | 30 to 100 | ≥ 100 | 30 to 100 | ≥ 100 | ≥ 100 | ≥ 100 | 156 | 1.7 | 30 to 100 | ≥ 100 | 30 to 100
2 | FC(F)(F)Oc1ccc(-c2cnc(CNc3nc(N4CCOCC4)nn4c(C(F)(F)F)cnc34)[nH]2)cc1 [Example 8, 2-(morpholin-4-yl)-N-({5-[4-(trifluoromethoxy)phenyl]-1H-imidazol-2-yl}methyl)-7-(trifluoromethyl)imidazo[2,1-f][1,2,4]triazin-4-amine] | 30 to 100 | 30 to 100 | 30 to 100 | 173 | 1.9 | 30 to 100 | ≥ 100 | ≤ 30 | ≥ 100 | ≥ 100 | 30 to 100 | 178 | 1.6 | 30 to 100 | 30 to 100 | ≥ 100
3 | FC(F)(F)c1ccc(-c2cnc(CNc3nc(N4CCOCC4)nc4c(C(F)(F)F)cnn34)[nH]2)cc1 [Example 9, 2-(morpholin-4-yl)-8-(trifluoromethyl)-N-({5-[4-(trifluoromethyl)phenyl]-1H-imidazol-2-yl}methyl)pyrazolo[1,5-a][1,3,5]triazin-4-amine] |  |  |  | 105 | 1.0 |  |  |  |  |  |  | 150 | 0.8 |  |  | 
4 | FC(F)(F)Oc1ccc(-c2cnc(CNc3nc(N4CCOCC4)nc4c(C(F)(F)F)cnn34)[nH]2)cc1 [Example 10, 2-(morpholin-4-yl)-N-({5-[4-(trifluoromethoxy)phenyl]-1H-imidazol-2-yl}methyl)-8-(trifluoromethyl)pyrazolo[1,5-a][1,3,5]triazin-4-amine] |  |  |  | 139 | 2.0 |  |  |  |  |  |  | 156 | 1.3 |  |  | 
5 | FC(F)(F)c1ccc(-c2cnc(CNc3nc(N4CCOCC4)nn4c(C(F)(F)F)cnc34)[nH]2)cn1 [Example 12, 2-(morpholin-4-yl)-7-(trifluoromethyl)-N-({5-[6-(trifluoromethyl)pyridin-3-yl]-1H-imidazol-2-yl}methyl)imidazo[2,1-f][1,2,4]triazin-4-amine] |  |  |  | 22.1 | 1.5 |  |  |  |  |  |  | 31 | 1.4 |  |  | 
6 | COc1ccc(-c2nnc(CNc3nc(N4CCOCC4)nn4c(C(F)(F)F)cnc34)[nH]2)cn1 [Example 18, N-{[5-(6-methoxypyridin-3-yl)-4H-1,2,4-triazol-3-yl]methyl}-2-(morpholin-4-yl)-7-(trifluoromethyl)imidazo[2,1-f][1,2,4]triazin-4-amine] |  |  |  | 252 | 2.4 |  |  |  |  |  |  | 288 | 4.0 |  |  | 
7 | FC(F)(F)Oc1ccc(-c2nnc(CNc3nc(N4CCOCC4)nn4c(C(F)(F)F)cnc34)[nH]2)cn1 [Example 19, 2-(morpholin-4-yl)-N-({5-[6-(trifluoromethoxy)pyridin-3-yl]-4H-1,2,4-triazol-3-yl}methyl)-7-(trifluoromethyl)imidazo[2,1-f][1,2,4]triazin-4-amine] |  |  |  | 97.1 | 1.5 |  |  |  |  |  |  | 103 | 2.7 |  |  | 
8 | FC(F)(F)c1ccc(-c2nnc(CNc3nc(N4CCOCC4)nn4c(C(F)(F)F)cnc34)[nH]2)cn1 [Example 20, 2-(morpholin-4-yl)-7-(trifluoromethyl)-N-({5-[6-(trifluoromethyl)pyridin-3-yl]-4H-1,2,4-triazol-3-yl}methyl)imidazo[2,1-f][1,2,4]triazin-4-amine] |  |  |  | 118 | 1.4 |  |  |  |  |  |  | 155 | 2.9 |  |  | 
9 | FC(F)(F)c1ccc(-c2cnc(CNc3nc(N4CCOCC4)nc4c(C(F)(F)F)cnn34)[nH]2)cn1 [Example 24, 2-(morpholin-4-yl)-8-(trifluoromethyl)-N-({5-[6-(trifluoromethyl)pyridin-3-yl]-1H-imidazol-2-yl}methyl)pyrazolo[1,5-a][1,3,5]triazin-4-amine] |  |  |  | 40.7 | 1.3 |  |  |  |  |  |  | 62.6 | 2.9 |  |  | 
